Results: US20210040062A1, “AZOLE-SUBSTITUTED PYRIDINE COMPOUND” (TAISHO PHARMACEUTICAL CO., LTD., priority 2016, published 2021)

Tests used:
human CYP4A11 = molecular target: T1, human CYP4A11 (Homo sapiens, UniProt Q02928); assay: CYP4A11 inhibition test (Test Example 1); type: biochemical; details: Escherichia coli membrane fraction expressing human CYP4A11, 60 μM luciferine derivative, room temperature 60 minutes, luminescence
T1 construct: host or cells: Escherichia coli (membrane fraction)
T1 sequence (Q02928 5-519): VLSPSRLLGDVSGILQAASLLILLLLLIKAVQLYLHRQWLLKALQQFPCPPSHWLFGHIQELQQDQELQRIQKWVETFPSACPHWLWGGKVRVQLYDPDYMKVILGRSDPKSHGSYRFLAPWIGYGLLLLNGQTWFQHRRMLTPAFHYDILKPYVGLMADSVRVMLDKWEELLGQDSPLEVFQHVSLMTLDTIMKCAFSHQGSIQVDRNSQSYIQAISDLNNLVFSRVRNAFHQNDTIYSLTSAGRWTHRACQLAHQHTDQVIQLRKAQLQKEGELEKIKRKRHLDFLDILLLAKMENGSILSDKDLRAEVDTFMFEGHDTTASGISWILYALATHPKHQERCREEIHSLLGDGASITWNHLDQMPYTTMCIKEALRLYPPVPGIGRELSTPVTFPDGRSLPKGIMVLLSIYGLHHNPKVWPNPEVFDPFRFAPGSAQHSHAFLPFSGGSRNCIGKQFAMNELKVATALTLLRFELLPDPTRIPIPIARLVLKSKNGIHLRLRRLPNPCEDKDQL
Description: (§1) (1) Inhibition Test for Each Compound of the Present Invention Against 20-HETE Producing Enzymes (CYP4F2 and CYP4A11)
(§2) In the CYP4F2 inhibition test, the reaction solution containing each compound [final concentration of 50 mM, KPO4 (pH 7.4), 2.5 μM, luciferine derivative and 1 mM NADPH] was added to an Escherichia coli membrane fraction (100 μg/mL, protein) in which human CYP4F2 had been expressed. In the CYP4A11 inhibition test, the reaction solution containing each compound [final concentration of 100 mM, Tris-HCl (pH 7.5), 60 μM, luciferine derivative, 1.3 mM NADP^+, 3.3 mM Glucose 6-Phosphate, 3.3 mM MgCl2 and 0.4 U/mL Glucose 6-Phosphate dehydrogenase] was added to an Escherichia coli membrane fraction (100 μg/mL, protein) in which human CYP4A11 had been expressed. Following this, the membrane fraction was left to stand at room temperature for 60 minutes to perform an enzymatic reaction. After the reaction, a luciferine detection reagent was added, and the luminescence value was measured using a plate reader.
(§3) A: Luminescence value with addition of compound
(§4) B: Luminescence value without addition of compound and enzyme
(§5) C: Luminescence value without addition of compound

human CYP4F2 = molecular target: T2, human CYP4F2 (Homo sapiens, UniProt P78329); assay: CYP4F2 inhibition test (Test Example 1); type: biochemical; details: Escherichia coli membrane fraction expressing human CYP4F2, 2.5 μM luciferine derivative, room temperature 60 minutes, luminescence
T2 construct: host or cells: Escherichia coli (membrane fraction)
T2 sequence (P78329 5-520): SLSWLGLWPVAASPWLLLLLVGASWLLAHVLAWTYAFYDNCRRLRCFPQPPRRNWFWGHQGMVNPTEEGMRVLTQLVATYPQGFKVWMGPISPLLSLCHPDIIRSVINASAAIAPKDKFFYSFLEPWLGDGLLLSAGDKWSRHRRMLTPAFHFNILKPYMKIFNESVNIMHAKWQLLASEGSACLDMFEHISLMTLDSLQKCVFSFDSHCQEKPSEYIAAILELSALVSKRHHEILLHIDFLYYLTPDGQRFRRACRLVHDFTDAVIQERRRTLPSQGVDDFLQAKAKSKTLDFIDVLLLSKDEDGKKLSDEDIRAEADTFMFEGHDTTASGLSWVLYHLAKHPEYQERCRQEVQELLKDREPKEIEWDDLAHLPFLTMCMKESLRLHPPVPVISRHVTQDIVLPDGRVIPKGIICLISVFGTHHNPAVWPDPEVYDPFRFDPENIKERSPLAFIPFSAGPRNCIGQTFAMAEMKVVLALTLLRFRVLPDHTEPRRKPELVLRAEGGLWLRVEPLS
Description: as §1, §2, §3, §4, §5

Compound | IC50 (human CYP4A11) [nM] | IC50 (human CYP4F2) [nM]
CC(C)COC(=O)N1CCC(CCOc2ccc(-c3ccn[nH]3)nc2)CC1 [Example 1-30] | 110 | 11
CC(C)OC(=O)NCCC(=O)N1CCC[C@@H](COc2ccc(-c3ccn[nH]3)nc2)C1 [Example 1-32] | 67 | 27
CCOC(=O)NCCC(=O)N1CCC[C@@H](COc2ccc(-c3ccn[nH]3)nc2)C1 [Example 1-33] | 83 | 54
COCCOC(=O)NCCC(=O)N1CCC[C@@H](COc2ccc(-c3ccn[nH]3)nc2)C1 [Example 1-34] | 310 | 79
CN(C)C(=O)NCCC(=O)N1CCC[C@@H](COc2ccc(-c3ccn[nH]3)nc2)C1 [Example 1-35] | 890 | 320
CC(=O)NCCC(=O)N1CCC[C@@H](COc2ccc(-c3ccn[nH]3)nc2)C1 [Example 1-36] | 640 | 680
O=C(NCCC(=O)N1CCC[C@@H](COc2ccc(-c3ccn[nH]3)nc2)C1)C1CC1 [Example 1-37] | 160 | 120
CCOC(=O)N[C@H]1C[C@H](C(=O)N2CCC[C@@H](COc3ccc(-c4ccn[nH]4)nc3)C2)C1 [Example 1-38] | 180 | 6.2
CCOC(=O)N[C@H]1C[C@@H](C(=O)N2CCC[C@@H](COc3ccc(-c4ccn[nH]4)nc3)C2)C1 [Example 1-39] | 270 | 11
CC1(C(=O)N2CCC(COc3ccc(-c4ccn[nH]4)nc3)CC2)CC1 [Example 2-1, (1-Methylcyclopropyl) [4-({[6-(1H-pyrazol-5-yl)pyridin-3-yl]oxy}methyl)piperidin-1-yl]methanone] | 1100 | 830
O=C(CC1CC1)N1CCC(COc2ccc(-c3ccn[nH]3)nc2)CC1 [Example 2-2] | 930 | 78
O=C(C1CCC1)N1CCC(COc2ccc(-c3ccn[nH]3)nc2)CC1 [Example 2-3] | 360 | 76
O=C(C1CC(F)(F)C1)N1CCC(COc2ccc(-c3ccn[nH]3)nc2)CC1 [Example 2-4] | 1100 | 94
CC1(C(=O)N2CCC(COc3ccc(-c4ccn[nH]4)nc3)CC2)COC1 [Example 2-5] | 1600 | 810
COCCC(=O)N1CCC(COc2ccc(-c3ccn[nH]3)nc2)CC1 [Example 2-6] | 2900 | 290
O=C([C@H]1CC[C@@H](O)CC1)N1CCC(COc2ccc(-c3ccn[nH]3)nc2)CC1 [Example 2-7] | 5300 | 440
O=C(C1CCOCC1)N1CCC(COc2ccc(-c3ccn[nH]3)nc2)CC1 [Example 2-8] | 5700 | 290
O=C(CCO)N1CCC(COc2ccc(-c3ccn[nH]3)nc2)CC1 [Example 2-9] | 3800 | 440
O=C(N1CCC(COc2ccc(-c3ccn[nH]3)nc2)CC1)C1(O)CC1 [Example 2-10] | 1100 | 400
CN(CCC(=O)N1CCC[C@@H](COc2ccc(-c3ccn[nH]3)nc2)C1)C(=O)OC(C)(C)C [Example 2-11, tert-Butyl methyl {3-oxo-3-[(3R)-3-({[6-(1H-pyrazol-5-yl)pyridin-3-yl]oxy}methyl)piperidin-1-yl]propyl}carbamate] | 350 | 9.5
C[C@H](CNC(=O)OC(C)(C)C)C(=O)N1CCC[C@@H](COc2ccc(-c3ccn[nH]3)nc2)C1 [Example 2-12] | 540 | 23
C[C@@H](CNC(=O)OC(C)(C)C)C(=O)N1CCC[C@@H](COc2ccc(-c3ccn[nH]3)nc2)C1 [Example 2-13] | 100 | 73
C[C@@H](CC(=O)N1CCC[C@@H](COc2ccc(-c3ccn[nH]3)nc2)C1)NC(=O)OC(C)(C)C [Example 2-14] | 77 | 29
CN(C)C(=O)CC(=O)N1CCC[C@@H](COc2ccc(-c3ccn[nH]3)nc2)C1 [Example 2-15] | 5800 | 12000
O=C(CC(=O)N1CCC[C@@H](COc2ccc(-c3ccn[nH]3)nc2)C1)N1CCCC1 [Example 2-16] | 7600 | 3600
CCCCNC(=O)CC(=O)N1CCC[C@@H](COc2ccc(-c3ccn[nH]3)nc2)C1 [Example 2-17] | 270 | 480
CC(C)NC(=O)CC(=O)N1CCC[C@@H](COc2ccc(-c3ccn[nH]3)nc2)C1 [Example 2-18] | 1800 | 2900

Other lines, results leading:

IC50 (human CYP4A11) [nM] | IC50 (human CYP4F2) [nM] | Compound
2600 | 2000 | O=C([C@H]1CC[C@H](O)CC1)N1CCC[C@@H](COc2ccc(-c3ccn[nH]3)nc2)C1 [Example 3-2, (4-Hydroxycyclohexyl)-((3R)-3-{[6-(1H-pyrazol-5-yl)pyridin-3-yl]oxymethyl}piperidin-1-yl)methanone]
1700 | 790 | O=C([C@H]1CC[C@@H](O)CC1)N1CCC[C@@H](COc2ccc(-c3ccn[nH]3)nc2)C1 [Example 3-3, (4-Hydroxycyclohexyl)-((3R)-3-{[6-(1H-pyrazol-5-yl)pyridin-3-yl]oxymethyl}piperidin-1-yl)methanone]
500 | 4200 | CS(=O)(=O)CC(=O)N1CCC[C@@H](COc2ccc(-c3ccn[nH]3)nc2)C1 [Example 3-4]
270 | 440 | O=C(c1ccccc1)N1CCC[C@@H](COc2ccc(-c3ccn[nH]3)nc2)C1 [Example 3-5]
2000 | 1300 | O=C(C1CCOCC1)N1CCC[C@@H](COc2ccc(-c3ccn[nH]3)nc2)C1 [Example 3-9]
600 | 430 | O=C(N1CCC[C@@H](COc2ccc(-c3ccn[nH]3)nc2)C1)C(F)(F)C1(O)CCOCC1 [Example 3-10]
190 | 52 | O=C(N1CCC[C@@H](COc2ccc(-c3ccn[nH]3)nc2)C1)C(F)(F)C1(O)CCCC1 [Example 3-11]
2800 | 2600 | O=C(CN1CCCS1(=O)=O)N1CCC[C@@H](COc2ccc(-c3ccn[nH]3)nc2)C1 [Example 3-12]
1500 | 280 | O=C(CC1CCS(=O)(=O)C1)N1CCC[C@@H](COc2ccc(-c3ccn[nH]3)nc2)C1 (stereo partly drawn) [Example 3-13]
1200 | 7100 | CC(=O)NCC(=O)N1CCC[C@@H](COc2ccc(-c3ccn[nH]3)nc2)C1 [Example 3-15]
77 | 17 | O=C(NCC(=O)N1CCC[C@@H](COc2ccc(-c3ccn[nH]3)nc2)C1)OCc1ccccc1 [Example 3-17]
50 | 18 | CC(C)(C)OC(=O)NCCC(=O)N1CCC[C@@H](COc2ccc(-c3ccn[nH]3)nc2)C1 [Example 3-18]
1000 | 2400 | NC(=O)CCC(=O)N1CCC[C@@H](COc2ccc(-c3ccn[nH]3)nc2)C1 [Example 3-19]
3300 | 650 | O=C(CCC(=O)N1CCC[C@@H](COc2ccc(-c3ccn[nH]3)nc2)C1)N1CCOCC1 [Example 3-20]
800 | 720 | NC(=O)NCCCC(=O)N1CCC[C@@H](COc2ccc(-c3ccn[nH]3)nc2)C1 [Example 3-21]
3200 | 4700 | CC(=O)N1CCCC1C(=O)N1CCC[C@@H](COc2ccc(-c3ccn[nH]3)nc2)C1 (stereo partly drawn) [Example 3-23]
2000 | 490 | CC(=O)N1CCC(C(=O)N2CCC[C@@H](COc3ccc(-c4ccn[nH]4)nc3)C2)CC1 [Example 3-24]
560 | 110 | NC(=O)COc1ccc(C(=O)N2CCC[C@@H](COc3ccc(-c4ccn[nH]4)nc3)C2)cc1 [Example 3-25]
